Assay: xn = mol fraction of the nth substance listed, in the solute-free solvent

Nc1cccc2c1CN(C1CCC(=O)NC1=O)C2=O (configuration not stated) + CC#N + CC(C)O
solubility (g/100 g solution)
Conditions | 273.15 K | 278.15 K | 283.15 K | 288.15 K | 293.15 K | 298.15 K | 303.15 K | 308.15 K | 313.15 K | 318.15 K
x2 = 0.2679 | 0.218 | 0.231 | 0.251 | 0.274 | 0.304 | 0.339 | 0.373 | 0.411 | 0.451 | 0.494
x2 = 0.4939 | 0.278 | 0.304 | 0.339 | 0.374 | 0.415 | 0.459 | 0.511 | 0.569 | 0.627 | 0.694
x2 = 0.6871 | 0.349 | 0.383 | 0.42 | 0.463 | 0.503 | 0.55 | 0.602 | 0.666 | 0.732 | 0.802
x2 = 0.8541 | 0.363 | 0.393 | 0.428 | 0.464 | 0.506 | 0.552 | 0.609 | 0.666 | 0.744 | 0.82

Nc1cccc2c1CN(C1CCC(=O)NC1=O)C2=O (configuration not stated) + CCOC(C)=O + CC(C)O
solubility (g/100 g solution)
Conditions | 273.15 K | 278.15 K | 283.15 K | 288.15 K | 293.15 K | 298.15 K | 303.15 K | 308.15 K | 313.15 K | 318.15 K
x2 = 0.1457 | 0.111 | 0.13 | 0.152 | 0.176 | 0.202 | 0.232 | 0.267 | 0.306 | 0.354 | 0.41
x2 = 0.3126 | 0.141 | 0.157 | 0.176 | 0.198 | 0.226 | 0.259 | 0.294 | 0.337 | 0.385 | 0.438
x2 = 0.5057 | 0.179 | 0.201 | 0.223 | 0.247 | 0.274 | 0.301 | 0.334 | 0.37 | 0.41 | 0.454
x2 = 0.7318 | 0.135 | 0.154 | 0.176 | 0.198 | 0.222 | 0.248 | 0.278 | 0.31 | 0.343 | 0.382

CC(C)C(=O)Nc1ccc([N+](=O)[O-])c(C(F)(F)F)c1 + CCO + O
solubility (g/100 g solution)
Conditions | 278.15 K | 283.15 K | 288.15 K | 293.15 K | 298.15 K | 303.15 K | 308.15 K | 313.15 K | 318.15 K | 323.15 K
x2 = 0.04165 | 0.00282 | 0.00366 | 0.00476 | 0.00623 | 0.00797 | 0.0102 | 0.0129 | 0.0162 | 0.0203 | 0.0251
x2 = 0.08908 | 0.0183 | 0.0236 | 0.0305 | 0.0388 | 0.0499 | 0.0632 | 0.0793 | 0.0976 | 0.122 | 0.148
x2 = 0.1436 | 0.0774 | 0.0967 | 0.124 | 0.158 | 0.199 | 0.246 | 0.305 | 0.377 | 0.462 | 0.568
x2 = 0.2068 | 0.289 | 0.358 | 0.447 | 0.563 | 0.694 | 0.851 | 1.04 | 1.26 | 1.54 | 1.86
x2 = 0.2812 | 0.894 | 1.09 | 1.34 | 1.62 | 1.93 | 2.32 | 2.77 | 3.31 | 3.89 | 4.58
x2 = 0.3698 | 2.17 | 2.59 | 3.2 | 3.88 | 4.59 | 5.48 | 6.38 | 7.52 | 8.74 | 10.2
x2 = 0.4772 | 4.83 | 5.78 | 6.84 | 8.03 | 9.49 | 11 | 12.8 | 14.7 | 16.8 | 19.1
x2 = 0.6101 | 8.9 | 10.5 | 12.3 | 14.3 | 16.5 | 19 | 21.5 | 24.4 | 27.2 | 30.6
x2 = 0.7788 | 13.7 | 15.9 | 18.4 | 21.1 | 24.4 | 27.7 | 30.7 | 34.4 | 38.1 | 41.7

Nc1ncc(Br)nc1Br + CC(O)CO + O
solubility (g/100 g solution)
Conditions | 278.15 K | 283.15 K | 288.15 K | 293.15 K | 298.15 K | 303.15 K | 308.15 K | 313.15 K | 318.15 K | 323.15 K
x2 = 0.02564 | 0.0095 | 0.0115 | 0.0136 | 0.016 | 0.0185 | 0.0208 | 0.0236 | 0.0266 | 0.0296 | 0.0328
x2 = 0.0559 | 0.0197 | 0.0236 | 0.0277 | 0.0324 | 0.0372 | 0.0418 | 0.0471 | 0.0527 | 0.0583 | 0.0644
x2 = 0.09214 | 0.0333 | 0.0398 | 0.0466 | 0.0542 | 0.0622 | 0.0696 | 0.0781 | 0.0872 | 0.0963 | 0.106
x2 = 0.1364 | 0.0486 | 0.0576 | 0.0678 | 0.0785 | 0.0902 | 0.101 | 0.113 | 0.126 | 0.139 | 0.154
x2 = 0.1915 | 0.0614 | 0.0724 | 0.0858 | 0.0998 | 0.115 | 0.13 | 0.147 | 0.163 | 0.18 | 0.2
x2 = 0.2621 | 0.0735 | 0.0873 | 0.103 | 0.12 | 0.138 | 0.158 | 0.176 | 0.197 | 0.218 | 0.244
x2 = 0.3559 | 0.0818 | 0.0972 | 0.116 | 0.134 | 0.156 | 0.178 | 0.201 | 0.225 | 0.251 | 0.281
x2 = 0.4865 | 0.0875 | 0.105 | 0.125 | 0.146 | 0.17 | 0.196 | 0.219 | 0.246 | 0.276 | 0.307
x2 = 0.6806 | 0.0874 | 0.104 | 0.124 | 0.147 | 0.171 | 0.196 | 0.224 | 0.252 | 0.281 | 0.316

CC(C)C(=O)Nc1ccc([N+](=O)[O-])c(C(F)(F)F)c1 + C1CCOC1 + CC(C)O
solubility (g/100 g solution)
Conditions | 278.15 K | 283.15 K | 288.15 K | 293.15 K | 298.15 K | 303.15 K | 308.15 K | 313.15 K | 318.15 K | 323.15 K
x2 = 0.1 | 22.2 | 24.2 | 27 | 30.4 | 34.3 | 39 | 43.5 | 47.9 | 52 | 56.1
x2 = 0.2 | 31.7 | 33.5 | 35.9 | 38.8 | 42.4 | 46.1 | 49.8 | 53.3 | 56.9 | 61
x2 = 0.3 | 36.9 | 40.3 | 43.7 | 47 | 50.5 | 53.9 | 57.1 | 60.3 | 63.6 | 66.8
x2 = 0.4 | 40.4 | 43.2 | 46.4 | 50.1 | 53.3 | 56.9 | 60.1 | 63.1 | 65.9 | 68.8
x2 = 0.5 | 43.9 | 46.5 | 49.6 | 52.6 | 55.8 | 59.1 | 62.3 | 65.3 | 68.1 | 70.9
x2 = 0.6 | 47.4 | 49.7 | 52.6 | 55.8 | 58.7 | 61.9 | 64.7 | 67.6 | 70.2 | 73.3
x2 = 0.7 | 50.4 | 51.9 | 54.7 | 57.8 | 61.2 | 64.4 | 67.1 | 70 | 72.6 | 75.4
x2 = 0.8 | 52.5 | 54.5 | 57.4 | 60.7 | 63.7 | 66.4 | 69 | 71.8 | 74.2 | 77.1
x2 = 0.9 | 55.2 | 57.1 | 59.7 | 62.6 | 65.8 | 68.7 | 71.3 | 73.7 | 75.9 | 78.2

Nc1ncn(C2OC(CO)C(O)C2O)c(=O)n1 (configuration not stated) + O + CCCO
solubility (g/100 g solution)
Conditions | 278.15 K | 283.15 K | 288.15 K | 293.15 K | 298.15 K | 303.15 K | 308.15 K | 313.15 K | 318.15 K
x2 = 0.4546 | 0.0722 | 0.0869 | 0.104 | 0.124 | 0.149 | 0.177 | 0.208 | 0.241 | 0.279
x2 = 0.6897 | 0.165 | 0.201 | 0.249 | 0.302 | 0.359 | 0.424 | 0.49 | 0.562 | 0.635
x2 = 0.8334 | 0.298 | 0.368 | 0.448 | 0.54 | 0.637 | 0.744 | 0.852 | 0.965 | 1.07
x2 = 0.9303 | 0.488 | 0.59 | 0.72 | 0.861 | 1.01 | 1.17 | 1.33 | 1.49 | 1.66

Nc1ncn(C2OC(CO)C(O)C2O)c(=O)n1 (configuration not stated) + O + CO
solubility (g/100 g solution)
Conditions | 278.15 K | 283.15 K | 288.15 K | 293.15 K | 298.15 K | 303.15 K | 308.15 K | 313.15 K | 318.15 K
x2 = 0.3077 | 0.0966 | 0.113 | 0.129 | 0.148 | 0.169 | 0.194 | 0.228 | 0.273 | 0.324
x2 = 0.5424 | 0.198 | 0.229 | 0.265 | 0.307 | 0.359 | 0.419 | 0.491 | 0.575 | 0.673
x2 = 0.7273 | 0.335 | 0.397 | 0.463 | 0.542 | 0.632 | 0.742 | 0.869 | 1 | 1.14
x2 = 0.8767 | 0.521 | 0.634 | 0.758 | 0.888 | 1.02 | 1.17 | 1.34 | 1.52 | 1.71

O=C1C=CC(=O)N1c1ccccc1Br + CCO + O
solubility (g/100 g solution)
Conditions | 278.15 K | 283.15 K | 288.15 K | 293.15 K | 298.15 K | 303.15 K | 308.15 K | 313.15 K | 318.15 K | 323.15 K
x2 = 0.04165 | 0.529 | 0.674 | 0.862 | 1.08 | 1.34 | 1.67 | 2.03 | 2.48 | 2.98 | 3.59
x2 = 0.08908 | 0.965 | 1.24 | 1.54 | 1.93 | 2.39 | 2.94 | 3.58 | 4.39 | 5.22 | 6.22
x2 = 0.1436 | 1.66 | 2.09 | 2.65 | 3.22 | 3.94 | 4.8 | 5.87 | 6.98 | 8.31 | 9.86
x2 = 0.2068 | 2.5 | 3.13 | 3.83 | 4.75 | 5.68 | 6.85 | 8.18 | 9.81 | 11.5 | 13.3
x2 = 0.2812 | 3.54 | 4.34 | 5.21 | 6.34 | 7.51 | 9.04 | 10.5 | 12.3 | 14.3 | 16.5
x2 = 0.3698 | 4.32 | 5.25 | 6.3 | 7.63 | 8.97 | 10.7 | 12.4 | 14.4 | 16.6 | 18.8
x2 = 0.4772 | 4.85 | 5.92 | 7.08 | 8.5 | 10 | 11.8 | 13.7 | 15.7 | 18.1 | 20.8
x2 = 0.6101 | 5.33 | 6.52 | 7.78 | 9.33 | 11 | 12.9 | 15.1 | 17.4 | 19.9 | 22.6
x2 = 0.7788 | 5.65 | 6.85 | 8.21 | 9.83 | 11.7 | 13.6 | 15.8 | 18.6 | 20.8 | 23.7

Source: the CheMixHub drug solubility set
